This is an account of results in US20110207723A1, “NOVEL FUSED AMINODIHYDROTHIAZINE DERIVATIVE” (EISAI R&D MANAGEMENT CO., LTD., priority 2008, published 2011).

The test system of the assay is Aβ42 production. As to the kind of experiment: Quantification of Aβ peptide in culture of neurons from rat fetus brain (Aβ42 ELISA). The format is cell-based. To be noted: Neuron, 72 h, rat primary neuronal culture (embryonic day 18 Wistar rat cerebral cortex), medium collected three days after addition of compound, read-out: Aβ42 production reducing effect IC50. As to the method:
Quantification of Aβ Peptide in Culture of Neurons from Rat Fetus Brain
Primary neuronal cultures were prepared from the cerebral cortex of embryonic day 18 Wistar rats (Charles River Japan, Yokohama, Japan). Specifically, the embryos were aseptically removed from pregnant rats under ether anesthesia. The brain was isolated from the embryo and immersed in an ice-cold L-15 medium (such as Invitrogen Corp. Cat #11415-064, Carlsbad, Calif., USA, or SIGMA L1518). The cerebral cortex was collected from the isolated brain under a stereoscopic microscope. The cerebral cortex fragments collected were enzymatically treated in an enzyme solution containing 0.25% trypsin (Invitrogen Corp. Cat #15050-065, Carlsbad, Calif., USA) and 0.01% DNase (Sigma D5025, St. Louis, Mo., USA) at 37° C. for 30 minutes to disperse the cells. Here, the enzymatic reaction was stopped by adding inactivated horse serum to the solution. The enzymatically treated solution was centrifuged at 1,500 rpm for five minutes to remove the supernatant. 5 to 10 ml of a medium was added to the resulting cell mass. Neurobasal medium (Invitrogen Corp. Cat #21103-049, Carlsbad, Calif., USA) supplemented with 2% B27 supplement (Invitrogen Corp. Cat #17504-044, Carlsbad, Calif., USA), 25 μM 2-mercaptoethanol (2-ME, WAKO Cat #139-06861, Osaka, Japan), 0.5 mM L-glutamine (Invitrogen Corp. Cat #25030-081, Carlsbad, Calif., USA), and Antibiotics-Antimycotics (Invitrogen Corp. Cat #15240-062, Carlsbad, Calif., USA) was used as the medium (Neurobasal/B27/2-ME). However, the above Neurobasal medium not supplemented with 2-ME (Neurobasal/B27) was used for the assay. The cells were redispersed by mild pipetting of the cell mass to which the medium was added. The cell dispersion was filtered through a 40-μm nylon mesh (Cell Strainer, Cat #35-2340, Becton Dickinson Labware, Franklin Lakes, N.J., USA) to remove the remaining cell mass, and thus a neuronal cell suspension was obtained. The neuronal cell suspension was diluted with the medium and then plated in a volume of 100 μl/well at an initial cell density of 5×10^5 cells/cm^2 in a 96-well polystyrene culture plate pre-coated with poly-L or D-lysine (Falcon Cat #35-3075, Becton Dickinson Labware, Franklin Lakes, N.J., USA coated with poly-L-lysine using the method shown below, or BIOCOAT™ cell environments Poly-D-lysine cell ware 96-well plate, Cat #35-6461, Becton Dickinson Labware, Franklin Lakes, N.J., USA). Poly-L-lysine coating was carried out as follows. 100 μg/ml of a poly-L-lysine (SIGMA P2636, St. Louis, Mo., USA) solution was aseptically prepared with a 0.15 M borate buffer (pH 8.5). […] of the solution was added to the 96-well polystyrene culture plate and incubated at room temperature for one or more hours or at 4° C. overnight or longer. Thereafter, the coated 96-well polystyrene culture plate was washed with sterile water four or more times, and then dried or rinsed with, for example, sterile PBS or medium, and used for cell plating. The plated cells were cultured in the culture plate at 37° C. in 5% CO2-95% air for one day. Then, the total amount of the medium was replaced with a fresh Neurobasal/B27/2-ME medium, and then the cells were cultured for further three days.
The drug was added to the culture plate on Day 4 of culture as follows. The total amount of the medium was removed from the wells, and 180 μl/well of Neurobasal medium not containing 2-ME and containing 2% B-27 (Neurobasal/B27) was added thereto. A solution of the test compound in dimethyl sulfoxide (hereinafter abbreviated as DMSO) was diluted with Neurobasal/B27 to a concentration 10-fold higher than the final concentration. 20 μl/well of the dilution was added to and sufficiently mixed with the medium. The final DMSO concentration was 1% or less. Only DMSO was added to the control group.
The cells were cultured for three days after addition of the compound, and the total amount of the medium was collected. […]

For the molecule `COC[C@H]1C[C@H]2CSC(N)=N[C@@]2(c2cc(NC(=O)c3cnc(OCF)cn3)ccc2F)CO1` (relative stereo) [Example 14, N-[3-((4aR*,6R*,8aS*)-2-amino-6-methoxymethyl-4,4a,5,6-tetrahydro-7-oxa-3-thia-1-azanaphthalen-8a-yl)-4-fluorophenyl]-5-fluoromethoxypyrazine-2-carboxamide], the 50% inhibitory concentration (IC50) (as a rule, the concentration that gives 50% inhibition) is 0.8 nM.
Next, `N#Cc1ccc(C(=O)Nc2ccc(F)c([C@]34COCC[C@H]3CSC(N)=N4)c2)nc1` (relative stereo) [Example 1, N-[3-((4aR*,8aS*)-2-amino-4,4a,5,6-tetrahydro-7-oxa-3-thia-1-azanaphthalen-8a-yl)-4-fluorophenyl]-5-cyanopyridine-2-carboxamide]: 1.7 nM.
The figure for `N#Cc1ccc(C(=O)Nc2ccc(F)c([C@]34CO[C@@H](C(F)(F)F)C[C@H]3CSC(N)=N4)c2)nc1` (relative stereo) [Example 35, N-[3-((4aR*,6R*,8aS*)-2-amino-6-trifluoromethyl-4,4a,5,6-tetrahydro-7-oxa-3-thia-1-azanaphthalen-8a-yl)-4-fluorophenyl]-5-cyanopyridine-2-carboxamide] is 2.1 nM; for `NC1=N[C@@]2(c3cc(-c4cccnc4F)ccc3F)COCC[C@H]2CS1` (racemic) [Example 61, (±)-(4aR*,8aS*)-8a-[2-fluoro-5-(2-fluoropyridin-3-yl)phenyl]-4,4a,5,6,8,8a-hexahydro-7-oxa-3-thia-1-azanaphthalen-2-ylamine] it is 319 nM; for `NC1=N[C@@]2(c3cc(NC(=O)c4cnc(OC(F)F)cn4)ccc3F)COC[C@@H](F)[C@H]2CS1` [Example 22, N-[3-((4aS,5S,8aS)-2-amino-5-fluoro-4,4a,5,6-tetrahydro-7-oxa-3-thia-1-azanaphthalen-8a-yl)-4-fluorophenyl]-5-difluoromethoxypyrazine-2-carboxamide] it is 4 nM.
As for `COC[C@H]1C[C@H]2CSC(N)=N[C@@]2(c2cc(NC(=O)c3ccc(C#N)cn3)ccc2F)CO1` (relative stereo) [Example 11, N-[3-((4aR*,6R*,8aS*)-2-amino-6-methoxymethyl-4,4a,5,6-tetrahydro-7-oxa-3-thia-1-azanaphthalen-8a-yl)-4-fluorophenyl]-5-cyanopyridine-2-carboxamide], the IC50 stood at 0.7 nM.
Next, `NC1=N[C@@]2(c3cc(NC(=O)c4ccc(Cl)cn4)ccc3F)CO[C@@H](CF)C[C@H]2CS1` [Example 45, N-[3-((4aR,6R,8aS)-2-amino-6-fluoromethyl-4,4a,5,6-tetrahydro-7-oxa-3-thia-1-azanaphthalen-8a-yl)-4-fluorophenyl]-5-chloropyridine-2-carboxamide]: 2 nM.
Regarding `C[C@@H]1COC[C@]2(c3cc(NC(=O)c4ccc(Cl)cn4)ccc3F)N=C(N)SC[C@H]12` (relative stereo) [Example 23, N-[3-((4aR*,5S*,8aS*)-2-amino-5-methyl-4,4a,5,6-tetrahydro-7-oxa-3-thia-1-azanaphthalen-8a-yl)-4-fluorophenyl]-5-chloropyridine-2-carboxamide], the IC50 is 12 nM.
The figure for `C[C@H]1COC[C@]2(c3cc(NC(=O)c4ccc(C#N)cn4)ccc3F)N=C(N)SC[C@H]12` (relative stereo) [Example 27, N-[3-((4aR*,5R*,8aS*)-2-amino-5-methyl-4,4a,5,6-tetrahydro-7-oxa-3-thia-1-azanaphthalen-8a-yl)-4-fluorophenyl]-5-cyanopyridine-2-carboxamide] is 8 nM; for `NC1=N[C@@]2(c3cc(NC(=O)c4cnc(OC(F)F)cn4)ccc3F)COCC[C@H]2CS1` (relative stereo) [Example 3, N-[3-((4aR*,8aS*)-2-amino-4,4a,5,6-tetrahydro-7-oxa-3-thia-1-azanaphthalen-8a-yl)-4-fluorophenyl]-5-difluoromethoxypyrazine-2-carboxamide] it is 1 nM; for `NC1=N[C@@]2(c3cc(NC(=O)c4ncc(F)cc4F)ccc3F)CO[C@@H](C(F)(F)F)C[C@H]2CS1` (relative stereo) [Example 41, N-[3-((4aR*,6R*,8aS*-2-amino-6-trifluoromethyl-4,4a,5,6-tetrahydro-7-oxa-3-thia-1-azanaphthalen-8a-yl)-4-fluorophenyl]-3,5-difluoropyridine-2-carboxamide] it is 2 nM.
Next, `NC1=N[C@@]2(c3cc(NC(=O)c4ccc(Cl)cn4)ccc3F)CO[C@@H](CO)C[C@H]2CS1` [Example 33, N-[3-((4aR,6R,8aS)-2-amino-6-hydroxymethyl-4,4a,5,6-tetrahydro-7-oxa-3-thia-1-azanaphthalen-8a-yl)-4-fluorophenyl]-5-chloropyridine-2-carboxamide]: 1.1 nM; `NC1=N[C@@]2(c3cc(NC(=O)c4ccc(Cl)cn4)ccc3OC(F)(F)F)COCC[C@H]2CS1` (single isomer, unassigned) [Example 5, N-[3-((8S*,8aS*)-2-amino-4,4a,5,6-tetrahydro-7-oxa-3-thia-1-azanaphthalen-8a-yl)-4-trifluoromethoxyphenyl]-5-chloropyridine-2-carboxamide]: 58 nM; `C[C@H]1COC[C@]2(c3cc(NC(=O)c4ccc(Cl)cn4)ccc3F)N=C(N)SC[C@H]12` (relative stereo) [Example 26, N-[3-((4aR*,5R*,8aS*)-2-amino-5-methyl-4,4a,5,6-tetrahydro-7-oxa-3-thia-1-azanaphthalen-8a-yl)-4-fluorophenyl]-5-chloropyridine-2-carboxamide]: 3 nM.
Turning to `NC1=N[C@@]2(c3cc(-c4cccnc4F)cs3)COCC[C@H]2CS1` (racemic) [Example 65, (±)-(4aR*,8aR*1-8a-[4-(2-fluoropyridin-3-yl)-thiophen-2-yl]-4,4a,5,6,8,8a-hexahydro-7-oxa-3-thia-1-azanaphthalen-2-ylamine], the IC50 was 370 nM.
For `NC1=N[C@@]2(c3cc(NC(=O)c4ccc(F)cn4)ccc3F)COCC[C@H]2CS1` (single isomer, unassigned) [Example 53, N-[3-((4aR*,8aS*)-2-amino-4,4a,5,6-tetrahydro-7-oxa-3-thia-1-azanaphthalen-8a-yl)-4-fluorophenyl]-5-fluoropyridine-2-carboxamide], the IC50 turned out to be 5.6 nM.
With `COC[C@H]1C[C@H]2CSC(N)=N[C@@]2(c2cc(NC(=O)c3cnc(OC(F)F)cn3)ccc2F)CO1` (relative stereo) [Example 15, N-[3-((4aR*,6R*,8aS*)-2-amino-6-methoxymethyl-4,4a,5,6-tetrahydro-7-oxa-3-thia-1-azanaphthalen-8a-yl)-4-fluorophenyl]-5-difluoromethoxypyrazine-2-carboxamide], the IC50 amounted to 0.4 nM.
`C[C@H]1C[C@H]2CSC(N)=N[C@@]2(c2cc(NC(=O)c3ccc(C(F)(F)F)cn3)ccc2F)CO1` (relative stereo) [Example 8, N-[3-((4aR*,6S*,8aS*)-2-amino-6-methyl-4,4a,5,6-tetrahydro-7-oxa-3-thia-1-azanaphthalen-8a-yl)-4-fluorophenyl]-5-trifluoromethylpyridine-2-carboxamide]: the IC50 is 1.6 nM.
Regarding `NC1=N[C@@]2(c3cc(NC(=O)c4ccc(C(F)F)cn4)ccc3F)COCC[C@H]2CS1` (single isomer, unassigned) [Example 56, N-[3-((4aR*,8aS*)-2-amino-4,4a,5,6-tetrahydro-7-oxa-3-thia-1-azanaphthalen-8a-yl)-4-fluorophenyl]-5-difluoromethylpyridine-2-carboxamide], the IC50 is 3 nM.
